Assay results as given in patent US11464802B2, “3-substituted piperidine compounds for Cbl-b inhibition, and use thereof” (Nurix Therapeutics, Inc., priority 2019, dated 2022).
Where two headings read alike, the source gives them in different places.

Legend:
Cbl-b = Cbl-b (Homo sapiens (Human), UniProt Q13191); test: Cbl-b displacement assay (Cbl-b inhibition assay), TR-FRET probe displacement, Biological Example 1; format: binding
Protocol: Candidate compounds were evaluated for their ability to bind and inhibit Cbl-b, an E3 ubiquitin-protein ligase, as evidenced by their ability to displace a fluorophore-labeled probe (Example 46) bound to Cbl-b.
The ability of candidate compounds to displace a known inhibitor and thereby inhibit Cbl-b activity was measured by monitoring the interaction of Cbl-b with a fluorophore-labeled probe in the presence of the candidate compound. A truncated variant of Cbl-b (UniProt number Q13191; SEQ ID NO:1) containing an Avitag at its N-terminus was co-expressed with BirA biotin ligase and purified using a standard protocol (see Dou et al., Nature Structural and Molecular Biology 8: 982-987, 2013; Avidity LLC).
Fluorescently-labeled inhibitor probe was synthesized and tagged with BODIPY FL (Example 46). Cbl-b displacement assays were performed in a 384-well plate at room temperature in a 10 μL reaction volume by pre-incubating 0.5 nM Cbl-b or 0.125 nM Cbl-b (final concentration, indicated as “High” and “Low”, respectively) in an assay buffer containing 20 mM HEPES pH 7.5, 150 mM NaCl, 0.01% Triton X-100, 0.01% BSA, and 0.5 mM TCEP in the presence of a candidate compound in 1% DMSO (final concentration) for 1 hour. After incubation in the presence of the candidate compound, the plate was incubated for an additional 1 hour in the presence of an approximate EC40 binding saturation consisting of 150 nM fluorescently-labeled inhibitor probe and 2 nM Streptavidin-Terbium (Cisbio) (final concentrations). Following the 1 hour incubation, the plates were read for TR-FRET signal at 520/620 nM using an Envision plate reader (Perkin Elmer).

[1] = system: primary human total T-cells; test: Primary human total T-cell activation: IL-2 secretion, Biological Example 2; format: cell-based; conditions: 48 hours, fold change over baseline; for fold induction at 0.3 µM: inhibitor 0.3 μM; for fold induction at 1 µM: inhibitor 1 μM; for fold induction at 3 µM: inhibitor 3 μM
[2] = system: primary human total T-cells; test: Primary human total T-cell activation: CD25 surface staining, Biological Example 2; format: cell-based; conditions: 48 hours, fold change over baseline; for fold induction at 0.3 µM: inhibitor 0.3 μM; for fold induction at 1 µM: inhibitor 1 μM; for fold induction at 3 µM: inhibitor 3 μM
[3] = 0.5 nM Cbl-b final concentration (High), read-out: Cbl-b activity IC50 (High)
[4] = anti-CD3/anti-CD28 co-stimulation
[5] = anti-CD3/anti-CD28 co-stimulation, read-out: IL-2 secretion CD3/CD28 1 μM
[6] = anti-CD3 alone, read-out: IL-2 secretion CD3 1 μM
[7] = anti-CD3/anti-CD28 co-stimulation, read-out: CD25 staining CD3/CD28 1 μM
[8] = anti-CD3 alone, read-out: CD25 staining CD3 1 μM
[9] = 0.125 nM Cbl-b final concentration (Low), read-out: Cbl-b activity IC50 (Low)
[10] = Cbl-b concentration (High or Low) not given, read-out: IC50 values in the Cbl-b inhibition assay of Biological Example 1

Chain of Cbl-b (Q13191 36-427): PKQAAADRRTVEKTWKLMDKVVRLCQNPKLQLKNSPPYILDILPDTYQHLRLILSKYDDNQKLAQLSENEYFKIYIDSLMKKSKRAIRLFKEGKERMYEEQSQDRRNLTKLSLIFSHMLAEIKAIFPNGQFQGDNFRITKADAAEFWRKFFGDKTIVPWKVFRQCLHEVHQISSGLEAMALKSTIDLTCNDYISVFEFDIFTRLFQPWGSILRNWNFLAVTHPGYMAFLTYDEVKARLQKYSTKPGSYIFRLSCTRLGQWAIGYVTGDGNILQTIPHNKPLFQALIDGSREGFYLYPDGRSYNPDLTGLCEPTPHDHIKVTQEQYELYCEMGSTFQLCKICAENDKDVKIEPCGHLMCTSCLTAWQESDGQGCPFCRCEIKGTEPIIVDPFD

| SMILES | IC50 (Cbl-b; [3]) [nM] | fold induction at 0.3 µM [1, 4] | fold induction at 1 µM [1, 5] | fold induction at 1 µM [1, 6] | fold induction at 3 µM ([1]; anti-CD3 alone) | fold induction at 0.3 µM [2, 4] | fold induction at 1 µM [2, 7] | fold induction at 1 µM [2, 8] | fold induction at 3 µM ([2]; anti-CD3 alone) | IC50 (Cbl-b; [9]) [nM] | IC50 (Cbl-b; [10]) [nM] |
| --- | --- | --- | --- | --- | --- | --- | --- | --- | --- | --- | --- |
| Cn1cnnc1CC1(c2cccc(N3Cc4c(cc(CN5CCC(F)(F)[C@H](CO)C5)cc4C(F)(F)F)C3=O)c2)COC1 [Compound 15, (S)-6-((4,4-difluoro-3-(hydroxymethyl)piperidin-1-yl)methyl)-2-(3-(3-((4-methyl-4H-1,2,4-triazol-3-yl)methyl)oxetan-3-yl)phenyl)-4-(trifluoromethyl)isoindolin-1-one] | 1 to 5 | < 10 | 11 to 15 | < 0.33 | 0.34 to 0.66 | < 1.24 | < 1.24 | 1.05 to 1.14 | 1.05 to 1.14 | – | – |
| Cn1cnnc1CC1(c2cccc(N3Cc4c(cc(CN5CCC(F)(F)[C@@H](CO)C5)cc4C(F)(F)F)C3=O)c2)COC1 [Compound 16, (R)-6-((4,4-difluoro-3-(hydroxymethyl)piperidin-1-yl)methyl)-2-(3-(3-((4-methyl-4H-1,2,4-triazol-3-yl)methyl)oxetan-3-yl)phenyl)-4-(trifluoromethyl)isoindolin-1-one] | 1 to 5 | < 10 | < 10 | < 0.33 | < 0.33 | < 1.24 | < 1.24 | < 1.04 | 1.05 to 1.14 | – | – |
| C[C@@H]1CN(Cc2cc3c(c(C(F)(F)F)c2)CN(c2cccc(C4(Cc5nncn5C)COC4)c2)C3=O)C[C@H](C)C1(F)F [Compound 17, 6-(((cis)-4,4-difluoro-3,5-dimethylpiperidin-1-yl)methyl)-2-(3-(3-((4-methyl-4H-1,2,4-triazol-3-yl)methyl)oxetan-3-yl)phenyl)-4-(trifluoromethyl)isoindolin-1-one] | 1 to 5 | 11 to 15 | > 15 | > 0.66 | > 0.66 | > 1.39 | 1.25 to 1.39 | > 1.14 | > 1.14 | – | – |
| Cn1cnnc1CC1(c2cccc(N3Cc4c(cc(CN5CCC[C@H](C#N)C5)cc4C(F)(F)F)C3=O)c2)COC1 [Compound 18, (S)-1-((2-(3-(3-((4-methyl-4H-1,2,4-triazol-3-yl)methyl)oxetan-3-yl)phenyl)-3-oxo-7-(trifluoromethyl)isoindolin-5-yl)methyl)piperidine-3-carbonitrile] | – | < 10 | 11 to 15 | < 0.33 | 0.34 to 0.66 | 1.25 to 1.39 | 1.25 to 1.39 | > 1.14 | > 1.14 | 1 to 5 | – |
| Cn1cnnc1CC1(c2cccc(N3Cc4c(cc(CN5CC(C(F)(F)F)C[C@H](C(F)(F)F)C5)cc4C(F)(F)F)C3=O)c2)COC1 (stereo partly drawn) [Compound 21, cis-6-{[3,5-bis(trifluoromethyl)piperidin-1-yl]methyl}-2-(3-{3-[(4-methyl-1,2,4-triazol-3-yl)methyl]oxetan-3-yl}phenyl)-4-(trifluoromethyl)-3H-isoindol-1-one] | – | < 10 | < 10 | < 0.33 | < 0.33 | 1.25 to 1.39 | 1.25 to 1.39 | < 1.04 | < 1.04 | 5.1 to 100 | 5.1 to 100 |
| CCNc1cc(C2(Cc3nncn3C)COC2)cc(N2Cc3c(cc(CN4CCC(F)(F)[C@H](C)C4)cc3C(F)(F)F)C2=O)n1 [Compound 27, (R)-6-((4,4-difluoro-3-methylpiperidin-1-yl)methyl)-2-(6-(ethylamino)-4-(3-((4-methyl-4H-1,2,4-triazol-3-yl)methyl)oxetan-3-yl)pyridin-2-yl)-4-(trifluoromethyl)iso indolin-1-one] | 5.1 to 100 | > 15 | > 15 | > 0.66 | > 0.66 | < 1.24 | < 1.24 | < 1.04 | < 1.04 | – | 5.1 to 100 |
